Assays:
Assay in all cases: Human cancer xenograft tumor model in nude mouse
Assay type in all cases: in vivo, BALB/C nude mice
[1] = test system: human prostate cancer cell strain BXPC-3 xenograft; details: BXPC-3 model, 22 d, intraperitoneal once a day, T/C < 60% = effective
Description: (§1) 5-6 week old female or male BALB/C nude mice, about 18-20 g in weight, were raised. Human cancer xenograft tumor model in nude mouse was established by the following steps: human colon cancer cell strains HCT-116 and Colo205, human breast cancer cell strain MDA-MB435, human prostate cancer cell strain BXPC-3, human ovarian cancer cell strain SKOV-3, human lung cancer cell strain A549, human pancreatic cancer cell strain PANC-1, and human uterine cancer cell strain Hela were all obtained from ATCC. Each cell strain was cultured, and monolayer of cultured tumor cells were digested off the walls, collected and resuspended in serum-free culture medium, and adjusted to a concentration of 2×10^6/0.2 mL, which was then brought to the animal room in an ice box. 0.2 mL cell suspension was drawn directly by a syringe with […] and subcutaneously transplanted into the scapula part of the rear part of nude mouse's left armpit, 2×10^6/0.2 mL for each mouse, and the tumor volume was measured every 2-3 days. After two weeks, tumor was removed under sterile conditions from tumor-bearing nude mice with vigorous tumor growth and without diabrosis. The tumor tissue was cut into pieces of about 2˜3 mm and inoculated subcutaneously into the scapula part of the rear part of nude mouse's left armpit. After three passages, when the tumor volume reached 100 mm^3, the nude mice with too large or too small tumors were eliminated and the rest were randomly divided into groups for the administration.
(§2) The mice were randomly divided into 5 groups, including negative control group (solvent), positive control group (BSI-201, 80 mg/kg), and three treatment groups with high, middle and low doses (40 mg/kg, 30 mg/kg, and 20 mg/kg respectively, wherein the high dose was below the MTD), and there were 8 nude mice in each group except that there are 16 ones in the negative control group. They were administered by intraperitoneal injection once a day for 3 consecutive weeks, during which body weight and tumor volume of the animals were detected and the death number of animals was recorded every 2 days. The animals were sacrificed 24 hours after the last administration, and the volume sizes of tumor, tumor weight, and body weight of nude mice were measured; growth curves of tumor volume, growth curves of body weight of nude mice and tumor inhibition rate, animal mortality were plotted, and relative tumor proliferation rate T/C (%) was calculated according to the equation T/C (%)=TRTV/CRTV*100%. (TRTV: RTV of the treatment group; CRTV: RTV of the negative control group, relative tumor volume RTV=Vt/V0, wherein V0 is the tumor volume when the mice were divided into groups for administration, Vt is the tumor volume after the administration).

[2] = test system: human breast cancer cell strain MDA-MB435 xenograft; details: MDA-MB-435 model, 21 d, intraperitoneal once a day, T/C < 60% = effective
Description: as §1, §2

[3] = test system: human colon cancer cell strain HCT-116 xenograft; details: HCT-116 model, 21 d, intraperitoneal once a day, T/C < 60% = effective
Description: as §1, §2

[4] = test system: human colon cancer cell strain Colo205 xenograft; details: Colo-205 model, 21 d, intraperitoneal once a day, T/C < 60% = effective
Description: as §1, §2

[5] = test system: human uterine cancer cell strain Hela xenograft; details: 21 d, intraperitoneal once a day, T/C < 60% = effective
Description: as §1, §2

[6] = test system: human pancreatic cancer cell strain PANC-1 xenograft; details: PANC-1 model, 21 d, intraperitoneal once a day, T/C < 60% = effective
Description: as §1, §2

[7] = test system: human ovarian cancer cell strain SKOV-3 xenograft; details: SKOV-3 model, 21 d, intraperitoneal once a day, T/C < 60% = effective
Description: as §1, §2

[8] = test system: human lung cancer cell strain A549 xenograft; details: 21 d, intraperitoneal once a day, T/C < 60% = effective
Description: as §1, §2

| SMILES | Relative tumor proliferation rate T/C (%) ([1]; 30 mg/kg) | Relative tumor proliferation rate T/C (%) ([2]; 30 mg/kg) | Relative tumor proliferation rate T/C (%) ([3]; 30 mg/kg) | Relative tumor proliferation rate T/C (%) ([4]; 30 mg/kg) | Relative tumor proliferation rate T/C (%) ([5]; 30 mg/kg) | Relative tumor proliferation rate T/C (%) ([6]; 30 mg/kg) | Relative tumor proliferation rate T/C (%) ([7]; 30 mg/kg) | Relative tumor proliferation rate T/C (%) ([8]; 30 mg/kg) | Relative tumor proliferation rate T/C (%) ([1]; 80 mg/kg) | Relative tumor proliferation rate T/C (%) ([2]; 80 mg/kg) | Relative tumor proliferation rate T/C (%) ([3]; 80 mg/kg) | Relative tumor proliferation rate T/C (%) ([4]; 80 mg/kg) | Relative tumor proliferation rate T/C (%) ([5]; 80 mg/kg) | Relative tumor proliferation rate T/C (%) ([6]; 80 mg/kg) | Relative tumor proliferation rate T/C (%) ([7]; 80 mg/kg) | Relative tumor proliferation rate T/C (%) ([8]; 80 mg/kg) |
| --- | --- | --- | --- | --- | --- | --- | --- | --- | --- | --- | --- | --- | --- | --- | --- | --- |
| C#Cc1ccc(C(N)=O)cc1[N+](=O)[O-] [Compound I-1, 4-ethynyl-3-nitrobenzamide] | 43%(30, 22) | 40%(30, 21) | 52%(30, 21) | 42%(30, 21) | 50%(30, 21) | 40%(30, 21) | 45%(30, 21) | 40%(30, 21) |  |  |  |  |  |  |  |  |
| NC(=O)c1ccc(I)c([N+](=O)[O-])c1 [BSI-201, 4-iodo-3-nitrobenzamide, reference compound] |  |  |  |  |  |  |  |  | 48%(80, 22) | 44%(80, 21) | 54%(80, 21) | 50%(80, 21) | 48%(80, 21) | 45%(80, 21) | 41%(80, 21) | 42%(80, 21) |

Source: patent US8946478B2, “Benzamide derivative with anticancer activity and preparation method and use thereof” (Zhejiang Hisun Pharmaceutical Co., Ltd., priority 2010, dated 2015)
